Assays:
[1] = system: ESBL-positive strains; test: Antibiotic concentration range on CPS ID 3 chromogenic agar: growth of ESBL-positive strains; type: cell-based; conditions: CPS ID 3 agar, 37° C., aerobic atmosphere
Excerpt: (§1) In the context of the manipulations carried out, for evaluating the activity of the antibiotics active on gram-negative bacilli, various species of enterobacteria (Escherichia coli, Enterobacter aerogenes, Klebsiella pneumoniae, Serratia marcescens, Proteus mirabilis) and of nonfermenting gram-negative bacilli (Pseudomonas aeruginosa), capable of producing ESBLs, were used. ESBL-positive strains, high level cephalosporinase-producing strains (HL Case) and wild-type strains are compared in the trials.
(§2) The medium used was a CPS ID3 medium (reference 43541) also comprising at least one antibiotic and at least one resistance mechanism inhibitor.
(§3) Osmosed water is added and the whole is homogenized and melted in a waterbath at 100° C. The base medium is dispensed into flasks, the number of which corresponds to the total number of media to be tested during the process. The flasks are then autoclaved for 15 min at 121° C. The media are brought back to and kept molten at 55±3° C. in a waterbath, in order to sterilely add the thermolabile additives (sterilized beforehand by filtration through 0.22 μm). The media are then poured into biplates 90 mm in diameter (i.e. approximately 9.5 ml/half-plate), and left on a flat surface so that they can set. The surface of the agars is then dried under a laminar flow hood for 30 min.
(§4) An inoculum of 0.5 McF is prepared, in physiological saline, from 24-hour precultures at 36° C.±2° C. in an aerobic atmosphere on TSA medium, and then 1 μl of this suspension is transferred into 5 ml of physiological saline. In order to obtain a sufficient number of isolated colonies, a range of inocula made it possible to determine that the optimal amount of bacteria to be inoculated was from 10^3 to 10^4 CFU/ml. The inoculation is carried out directly on the two half-agars using a sterile swab. The cultures are then incubated at 37° C. in an aerobic atmosphere.
(§5) 4. Reading of media: the readings are carried out at 18 hours (±30 min), 24 h (±1h) and 48 h (±4 h). The density and the size of the colonies, and the appearance, the color and the coloration intensities of the mass and of the isolated colonies were observed, according to the following reading scales 1 to 3: 0: no growth; 0.1: trace of growth; 0.25: colonies of diameter<0.5 mm; 0.5: colonies of 0.5 mm in diameter; 0.75: 0.5 mm<diameter<1 mm; 1: colonies of 1 mm in diameter; 1.25: 1 mm<diameter<1.5 mm; 1.5: colonies 1.5 mm in diameter; 2: colonies 2 mm in diameter; 3: colonies of diameter>2 mm.
(§6) The 5 antibiotics recommended by the NCCLS (National Committee for Clinical Laboratory Standards) were tested. For each product tested, a range was prepared in order to determine the concentrations that make it possible to inhibit the wild-type strains of the enterobacteria tested, without affecting the growth of the ESBL-positive strains or the HL Case-positive strains.
(§7) The low value corresponds to the minimum concentration of the antibiotic required to inhibit the wild-type strains of the enterobacteria tested. The high value corresponds to the maximum concentration of the antibiotic that can be used without affecting the growth of the ESBL-positive strains tested.

[2] = system: wild-type strains of the enterobacteria tested; test: Antibiotic concentration range on CPS ID 3 chromogenic agar: inhibition of wild-type strains; type: cell-based; conditions: CPS ID 3 agar, 37° C., aerobic atmosphere
Excerpt: as §1, §2, §3, §4, §5, §6, §7

[3] = system: wild-type strains of P. aeruginosa; test: Antibiotic concentration range on CPS ID 3: complete inhibition of wild-type P. aeruginosa; type: cell-based, Pseudomonas aeruginosa; conditions: CPS ID 3 agar
Excerpt: as §1
Osmosed water is added and the whole is homogenized and melted in a waterbath at 100° C. The base medium is dispensed into flasks, the number of which corresponds to the total number of media to be tested during the process. The flasks are then autoclaved for 15 min at 121° C. […]
as §5, with “mm. […]” for “mm.”

[4] = system: ESBL-positive enterobacterial strains; type: cell-based, enterobacteria; conditions: in the presence of cefotaxime
Description: 4. Reading of media: the readings are carried out at 18 hours (±30 min), 24 h (±1h) and 48 h (±4 h). The density and the size of the colonies, and the appearance, the color and the coloration intensities of the mass and of the isolated colonies were observed, according to the following reading scales 1 to 3: 0: no growth; 0.1: trace of growth; 0.25: colonies of diameter<0.5 mm; 0.5: colonies of 0.5 mm in diameter; 0.75: 0.5 mm<diameter<1 mm; 1: colonies of 1 mm in diameter; 1.25: 1 mm<diameter<1.5 mm; 1.5: colonies 1.5 mm in diameter; 2: colonies 2 mm in diameter; 3: colonies of diameter>2 mm. […]

[5] = system: E. casseliflavus and E. gallinarum strains (natural resistances); test: Example 4: Columbia chromogenic media with vancomycin, naturally resistant enterococci; type: cell-based, Enterococcus casseliflavus, Enterococcus gallinarum; conditions: vancomycin 8 mg/l
Description: In the context of the manipulations carried out, for evaluating the activity of antibiotics active on enterococci, various species of Enterococcus (Enterococccus faecalis, Enterococcus faecium, Enterococcus casseliflavus, Enterococcus gallinarum,) were used. In the assays, strains resistant to glycopeptides (VRE) and wild-type strains are compared.
The media used were a Columbia medium (51026), also comprising: • 5-bromo-4-chloro-3-indolyl-N-methyl-α-D-glucopyranoside (GreenA-α-Glu) at 150 mg/l, • 6-chloro-3-indolyl-β-glucopyranoside (Rose-b-Glu [Pink-b-Glu]) at 200 mg/l, or: • 5-bromo-4-chloro-3-indolyl-N-methyl-α-D-glucopyranoside (GreenA-α-Glu) at 150 mg/l, • alizarine-β-galactopyranoside at 50 mg/l • and vancomycin at 8 mg/l, • an amphotericin B at 4 mg/l, • and colistine at 2 mg/l, • and aztreonam at 32 mg/l.
as §3, with “two basic media are” for “base medium is”, “flasks.” for “flasks, the number of which corresponds to the total number of media to be tested during the process.”, “plates” for “biplates”, “diameter” for “diameter (i.e. approximately 9.5 ml/half-plate),”, “min. […]” for “min.”

| Compound | High value: maximum concentration of the antibiotic that can be used without affecting the growth of the ESBL-positive strains tested [1] [mg/L] | Low value: minimum concentration of the antibiotic required to inhibit the wild-type strains of the enterobacteria tested [2] [mg/L] | further results |
| --- | --- | --- | --- |
| C[C@H]1[C@H](NC(=O)/C(=N\OC(C)(C)C(=O)O)c2csc(N)n2)C(=O)N1S(=O)(=O)O [Aztreonam, aztreonam] | 1.5 | 1 |  |
| CO/N=C(\C(=O)N[C@@H]1C(=O)N2C(C(=O)O)=C(COC(C)=O)CS[C@H]12)c1csc(N)n1 [Cefotaxime, cefotaxime] | 2 | 1 |  |
| COCC1=C(C(=O)O)N2C(=O)[C@@H](NC(=O)/C(=N\OC)c3csc(N)n3)[C@H]2SC1 [Cefpodoxime, cefpodoxime] | 10 | 2 |  |
| CC(C)(O/N=C(\C(=O)N[C@@H]1C(=O)N2C(C(=O)[O-])=C(C[n+]3ccccc3)CS[C@H]12)c1csc(N)n1)C(=O)O [Ceftazidime, ceftazidime] | 2.5 | 2 | minimum concentration for complete inhibition of wild-type strains of P. aeruginosa (limiting value) [3]: 1.5 mg/L |
| CO/N=C(\C(=O)N[C@@H]1C(=O)N2C(C(=O)O)=C(CSc3nc(=O)c(=O)[nH]n3C)CS[C@H]12)c1csc(N)n1 [Ceftriaxone, ceftriaxone] | 2.5 | 1 |  |
| O=C(O)[C@H]1/C(=C/CO)O[C@@H]2CC(=O)N21 [clavulanic acid] |  |  | relative effectiveness among the β-lactamase inhibitors (BLI) tested [4]: most effective BLI |
| CN[C@H](CC(C)C)C(=O)N[C@H]1C(=O)N[C@@H](CC(N)=O)C(=O)N[C@H]2C(=O)N[C@H]3C(=O)N[C@H](C(=O)N[C@H](C(=O)O)c4cc(O)cc(O)c4-c4cc3ccc4O)[C@H](O)c3ccc(c(Cl)c3)Oc3cc2cc(c3O[C@@H]2O[C@H](CO)[C@@H](O)[C@H](O)[C@H]2O[C@H]2C[C@](C)(N)[C@H](O)[C@H](C)O2)Oc2ccc(cc2Cl)[C@H]1O [vancomycin] |  |  | effect on E. casseliflavus and E. gallinarum strains ([5]; medium with α-glucosidase and β-galactosidase substrates): inhibited; effect on E. casseliflavus and E. gallinarum strains ([5]; medium with α-glucosidase and β-glucosidase substrates): inhibited |

— patent publication US20210363563A1, “MEDIUM FOR THE SPECIFIC DETECTION OF RESISTANT MICROORGANISMS” (BIOMERIEUX, priority 2005, published 2021)
